Data reported in ChEMBL document CHEMBL5233229, “Recent advances in the development of ubiquitin-specific-processing protease 7 (USP7) inhibitors” (Eur J Med Chem, 2020).
Values joined by “and” are separate entries in the source; they are usually repeats but may differ in a detail not shown here. Equal entries are not always repeated.

Key:
[1] = target: T1, Ubiquitin carboxyl-terminal hydrolase 7 (Homo sapiens, UniProt Q93009); test: Inhibition of human USP7 using human N-terminal GST-tagged UBA52 as substrate preincubated for 10 mins followed by substrate addition measured after 45 mins by coomassie brilliant blue staining-based SDS-PAGE analysis
T1 sequence (Q93009 whole entry): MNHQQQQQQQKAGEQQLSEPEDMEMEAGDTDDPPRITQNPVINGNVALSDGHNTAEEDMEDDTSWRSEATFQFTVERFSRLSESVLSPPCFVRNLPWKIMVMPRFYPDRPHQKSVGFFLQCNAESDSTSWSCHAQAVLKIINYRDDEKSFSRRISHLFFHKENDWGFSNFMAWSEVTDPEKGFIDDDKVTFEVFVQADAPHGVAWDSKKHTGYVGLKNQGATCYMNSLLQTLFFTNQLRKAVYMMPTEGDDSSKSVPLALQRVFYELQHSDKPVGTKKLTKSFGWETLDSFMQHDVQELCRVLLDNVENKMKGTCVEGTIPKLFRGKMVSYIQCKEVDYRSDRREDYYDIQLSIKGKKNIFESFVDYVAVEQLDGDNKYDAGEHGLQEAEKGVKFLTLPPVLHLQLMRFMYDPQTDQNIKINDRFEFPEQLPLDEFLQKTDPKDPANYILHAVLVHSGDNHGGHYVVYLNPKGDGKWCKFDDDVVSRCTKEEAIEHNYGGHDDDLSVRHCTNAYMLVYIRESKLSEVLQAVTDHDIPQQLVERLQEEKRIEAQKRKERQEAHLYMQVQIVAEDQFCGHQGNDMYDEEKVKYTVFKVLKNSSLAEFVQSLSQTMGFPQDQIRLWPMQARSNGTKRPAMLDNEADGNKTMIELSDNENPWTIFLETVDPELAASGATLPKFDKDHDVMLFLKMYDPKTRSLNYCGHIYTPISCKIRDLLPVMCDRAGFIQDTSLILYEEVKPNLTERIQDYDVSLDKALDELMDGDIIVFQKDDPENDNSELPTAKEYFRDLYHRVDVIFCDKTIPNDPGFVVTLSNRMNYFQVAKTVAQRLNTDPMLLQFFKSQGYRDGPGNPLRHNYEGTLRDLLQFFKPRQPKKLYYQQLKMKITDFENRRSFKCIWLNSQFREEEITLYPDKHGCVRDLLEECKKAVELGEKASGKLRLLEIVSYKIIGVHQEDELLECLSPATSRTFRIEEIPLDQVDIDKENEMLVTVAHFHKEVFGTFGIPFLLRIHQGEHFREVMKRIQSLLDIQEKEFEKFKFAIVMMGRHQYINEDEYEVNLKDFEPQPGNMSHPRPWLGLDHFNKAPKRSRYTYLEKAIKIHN

[2] = target: T1, Ubiquitin carboxyl-terminal hydrolase 7; test: Inhibition of human USP7 using Ub-EKL as substrate by SDS-PAGE assay
[3] = target: T2, Ubiquitin carboxyl-terminal hydrolase 47 (Homo sapiens, UniProt Q96K76); test: Inhibition of human USP47 using Ub-EKL as substrate by SDS-PAGE assay
T2 sequence (Q96K76 whole entry): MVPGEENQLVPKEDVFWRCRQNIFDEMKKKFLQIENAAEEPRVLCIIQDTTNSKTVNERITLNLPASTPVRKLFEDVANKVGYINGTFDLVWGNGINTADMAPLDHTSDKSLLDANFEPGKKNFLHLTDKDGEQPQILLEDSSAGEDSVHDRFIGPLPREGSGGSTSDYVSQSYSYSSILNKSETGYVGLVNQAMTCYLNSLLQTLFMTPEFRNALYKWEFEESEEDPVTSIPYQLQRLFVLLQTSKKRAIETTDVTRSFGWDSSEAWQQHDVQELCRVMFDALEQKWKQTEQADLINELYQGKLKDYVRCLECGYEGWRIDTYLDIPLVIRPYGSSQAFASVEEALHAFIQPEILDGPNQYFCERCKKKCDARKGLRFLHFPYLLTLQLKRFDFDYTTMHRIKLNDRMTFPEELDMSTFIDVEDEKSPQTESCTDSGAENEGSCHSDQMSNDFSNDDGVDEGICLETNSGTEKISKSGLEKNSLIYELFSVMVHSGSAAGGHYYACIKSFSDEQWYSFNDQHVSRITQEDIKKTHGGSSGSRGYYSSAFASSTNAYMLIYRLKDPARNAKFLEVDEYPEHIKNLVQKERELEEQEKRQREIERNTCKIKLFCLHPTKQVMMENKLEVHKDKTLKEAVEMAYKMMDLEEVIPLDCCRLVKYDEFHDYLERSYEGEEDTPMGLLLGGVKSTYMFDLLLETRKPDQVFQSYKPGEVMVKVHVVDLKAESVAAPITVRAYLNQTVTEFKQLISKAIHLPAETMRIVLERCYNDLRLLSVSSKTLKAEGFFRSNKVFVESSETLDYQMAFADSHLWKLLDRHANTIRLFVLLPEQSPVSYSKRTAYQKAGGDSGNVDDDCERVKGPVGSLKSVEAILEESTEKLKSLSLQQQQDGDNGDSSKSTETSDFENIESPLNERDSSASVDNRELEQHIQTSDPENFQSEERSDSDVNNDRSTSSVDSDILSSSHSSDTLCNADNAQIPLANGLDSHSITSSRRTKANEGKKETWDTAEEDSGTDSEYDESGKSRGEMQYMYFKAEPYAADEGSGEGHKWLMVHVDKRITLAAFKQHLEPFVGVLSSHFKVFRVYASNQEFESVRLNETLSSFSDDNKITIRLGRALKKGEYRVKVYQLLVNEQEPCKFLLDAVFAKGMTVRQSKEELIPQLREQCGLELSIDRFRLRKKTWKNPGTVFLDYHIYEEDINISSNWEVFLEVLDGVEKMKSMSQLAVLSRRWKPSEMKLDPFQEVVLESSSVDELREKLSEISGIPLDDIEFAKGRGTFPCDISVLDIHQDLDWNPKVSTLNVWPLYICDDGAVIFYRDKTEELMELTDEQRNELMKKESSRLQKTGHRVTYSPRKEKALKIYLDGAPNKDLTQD

[4] = target: T1, Ubiquitin carboxyl-terminal hydrolase 7; test: Inhibition of human USP7 using Ub-AMC as substrate

| Structure (SMILES) | IC50 [1] | EC50 [2] | EC50 [3] | IC50 [4] |
| --- | --- | --- | --- | --- |
| CC1(C)CC[C@]2(C(=O)O)CC[C@]3(C)C(=CC[C@@H]4[C@@]5(C)CC[C@H](O)C(C)(C)[C@@H]5CC[C@]43C)[C@@H]2C1 [OLEANOLIC_ACID] | 12.5 µM |  |  |  |
| O=C(Nc1ccc2c(c1)S(=O)(=O)CC2)c1cc([N+](=O)[O-])c(Sc2c(Cl)cncc2Cl)s1 |  | 130 nM | 2030 nM |  |
| CS(=N)(=O)c1cccc(NC(=O)c2cc([N+](=O)[O-])c(Sc3c(Cl)cncc3Cl)s2)c1 (centres undefined) |  | 2000 nM | 2200 nM |  |
| C=C(C)[C@@H]1CC[C@]2(C)CC[C@]3(C)[C@H](CC[C@@H]4[C@@]5(C)CC[C@H](O)C(C)(C)[C@@H]5CC[C@]43C)[C@H]2C1 | > 50 µM |  |  |  |
| O=C(NC1CCS(=O)(=O)C2COCCC12)c1cc([N+](=O)[O-])c(Sc2c(Cl)cncc2Cl)s1 (centres undefined) |  | 4800 nM | 4100 nM |  |
| O=C(Nc1cccc(S(=O)(=O)C2CC2)c1)c1cc([N+](=O)[O-])c(Sc2c(Cl)cncc2Cl)s1 |  | 560 nM | 1590 nM |  |
| CS(=O)(=O)c1cccc(NC(=O)c2cc([N+](=O)[O-])c(Sc3c(Cl)cncc3Cl)s2)c1 |  | 510 nM | 1400 nM |  |
| CS(=O)(=O)c1ccc(NC(=O)c2cc([N+](=O)[O-])c(Sc3c(Cl)cncc3Cl)s2)cc1 |  | 6800 nM | 11800 nM |  |
| CS(=O)(=O)c1ccccc1NC(=O)c1cc([N+](=O)[O-])c(Sc2c(Cl)cncc2Cl)s1 |  | 850 nM | 9300 nM |  |
| CN(C)CCNC1CS(=O)(=O)c2cc(NC(=O)c3cc([N+](=O)[O-])c(Sc4c(Cl)cncc4Cl)s3)ccc21 (centres undefined) |  | 220 nM | 200 nM |  |
| CC1(C)CCC2(C(=O)O)CCC3=C([C@@H](CCl)C[C@@H]4[C@@]5(C)C[C@H](O)[C@H](O)[C@](C)(C(=O)O)[C@@H]5CC[C@]34C)[C@@H]2C1 (single isomer, unassigned) | > 50 µM |  |  |  |
| CC1(C)CC[C@]2(C(=O)O)CC[C@]3(C)C(=CC[C@@H]4[C@@]5(C)C[C@H](O)[C@H](O)[C@@](C)(CO)[C@@H]5CC[C@]43C)[C@@H]2C1 | > 50 µM |  |  |  |
| CC1CS(=O)(=O)c2cc(NC(=O)c3cc([N+](=O)[O-])c(Sc4c(Cl)cncc4Cl)s3)ccc21 (centres undefined) |  | 75 nM | 360 nM |  |
| C[C@H]1[C@H](C)CC[C@]2(C(=O)O)CC[C@]3(C)C(=CC[C@@H]4[C@@]5(C)C[C@@H](O)[C@H](O)[C@@](C)(CO)[C@@H]5[C@H](O)C[C@]43C)[C@H]12 [MADECASSIC ACID] | > 50 µM |  |  |  |
| COCCNC1CS(=O)(=O)c2cc(NC(=O)c3cc([N+](=O)[O-])c(Sc4c(Cl)cncc4Cl)s3)ccc21 (centres undefined) |  | 790 nM | 2000 nM |  |
| CC1(C)CC[C@]2(C(=O)O)CC[C@]3(C)C(=CC[C@@H]4[C@@]5(C)CC[C@H](O)[C@@](C)(CO)[C@@H]5CC[C@]43C)[C@@H]2C1 [HEDERAGENIN] | 33.5 µM |  |  |  |

| Structure (SMILES) | IC50 [1] | EC50 [2] | EC50 [3] | IC50 [4] |
| --- | --- | --- | --- | --- |
| CS(=O)(=O)Nc1cccc(NC(=O)c2cc([N+](=O)[O-])c(Sc3c(Cl)cncc3Cl)s2)c1 |  | 640 nM | 1280 nM |  |
| O=C(Nc1ccc2c(c1)S(=O)(=O)C=C2)c1cc([N+](=O)[O-])c(Sc2c(Cl)cncc2Cl)s1 |  | 100 nM | 1330 nM |  |
| CC1(C)[C@H](O)CC[C@]2(C)[C@H]3C(=O)C=C4[C@@H]5C[C@@](C)(C(=O)O)CC[C@]5(C)CC[C@]4(C)[C@@]3(C)CC[C@@H]12 | > 50 µM |  |  |  |
| CC1(C)CC[C@]2(C(=O)O)[C@H](O)C[C@]3(C)C(=CC[C@@H]4[C@@]5(C)C[C@H](O)[C@H](O)[C@@](C)(CO)[C@@H]5CC[C@]43C)[C@@H]2C1 | > 50 µM |  |  |  |
| N#Cc1cc(C(=O)Nc2ccc3c(c2)S(=O)(=O)C=C3)sc1Sc1c(Cl)cncc1Cl |  | 590 nM | 5100 nM |  |
| C[C@H]1[C@H](C)CC[C@]2(C(=O)O)CC[C@]3(C)C(=CC[C@@H]4[C@@]5(C)C[C@@H](O)[C@H](O)[C@@](C)(CO)[C@@H]5CC[C@]43C)[C@H]12 [ASIATIC ACID] | > 50 µM |  |  |  |
| C=C(C)[C@@H]1CC[C@]2(C(=O)O)CC[C@]3(C)[C@H](CC[C@@H]4[C@@]5(C)CC[C@H](O)C(C)(C)[C@@H]5CC[C@]43C)[C@H]2C1 | 33.3 µM |  |  |  |
| C[C@H]1[C@H](C)CC[C@]2(C(=O)O)CC[C@]3(C)C(=CC[C@@H]4[C@@]5(C)C[C@@H](O)[C@H](O)C(C)(C)[C@@H]5CC[C@]43C)[C@H]12 [COROSOLIC ACID] | 22.7 µM |  |  |  |
| CC1=CS(=O)(=O)c2cc(NC(=O)c3cc([N+](=O)[O-])c(Sc4c(Cl)cncc4Cl)s3)ccc21 |  | 170 nM | 360 nM |  |
| O=C(NC1CCS(=O)(=O)CC1)c1cc([N+](=O)[O-])c(Sc2c(Cl)cncc2Cl)s1 |  | 2100 nM | 3500 nM |  |
| CC1CS(=N)(=O)c2cc(NC(=O)c3cc([N+](=O)[O-])c(Sc4c(Cl)cncc4Cl)s3)ccc21 (centres undefined) |  | 470 nM | 1100 nM |  |
| CN(C)CCOc1ccc(NC(=O)c2cc([N+](=O)[O-])c(Sc3c(Cl)cncc3Cl)s2)cc1 |  | 500 nM | 450 nM |  |
| COC(=O)[C@]12CC[C@@H](C)[C@H](C)[C@H]1C1=CC[C@@H]3[C@@]4(C)CC[C@H](O)C(C)(C)[C@@H]4CC[C@@]3(C)[C@]1(C)CC2 [METHYL URSOLATE] | > 50 µM |  |  |  |
| CCS(=O)(=O)c1cccc(NC(=O)c2cc([N+](=O)[O-])c(Sc3c(Cl)cncc3Cl)s2)c1 |  | 420 nM | 940 nM |  |
| CC(=O)O[C@H]1CC[C@]2(C)[C@H]3CC=C4[C@@H]5[C@@H](C)[C@H](C)CC[C@]5(C(=O)O)CC[C@@]4(C)[C@]3(C)CC[C@H]2C1(C)C [O-ACETYLURSOLIC ACID] | > 50 µM |  |  |  |

Other lines, results leading:

| IC50 [1] | EC50 [2] | EC50 [3] | IC50 [4] | Structure (SMILES) |
| --- | --- | --- | --- | --- |
|  |  |  | 0.19 µM | C[C@H](CC(=O)N1CCC(O)(Cn2cnc3cc(NC(=O)CCN4CCN(C)CC4)ccc3c2=O)CC1)c1ccccc1 |
|  |  |  | 0.48 µM | C[C@H](CC(=O)N1CCC(O)(Cn2cnc3cc(NC(=O)CCN4CCOCC4)ccc3c2=O)CC1)c1ccccc1 |
|  |  |  | 0.42 µM | C[C@H](CC(=O)N1CCC(O)(Cn2cnc3cc(Cl)ccc3c2=O)CC1)c1ccccc1 |
|  |  |  | 0.35 µM | CC(CC(=O)N1CCC(O)(Cn2cnc3cc(NC(=O)CCN4CCCCC4)ccc3c2=O)CC1)c1ccccc1 (centres undefined) |
|  | 810 nM | 1600 nM |  | O=C(NC1CCS(=O)(=O)c2ccccc21)c1cc([N+](=O)[O-])c(Sc2c(Cl)cncc2Cl)s1 (centres undefined) |
|  |  |  | > 100 µM | O=C(CCc1ccccc1)N1CCC(Cn2cnc3cc(Cl)ccc3c2=O)CC1 |
|  |  |  | 7.18 µM and 11 µM | C[C@@H](CC(=O)N1CCC(O)(Cn2cnc3cc(NC(=O)CCN4CCN(C)CC4)ccc3c2=O)CC1)c1ccccc1 |
|  |  |  | > 100 µM | N#CC1(Cn2cnc3cc(Cl)ccc3c2=O)CCN(C(=O)CCc2ccccc2)CC1 |
|  |  |  | > 100 µM | CC(=O)N1CCC(O)(Cn2cnc3cc(Cl)ccc3c2=O)CC1 |
|  |  |  | > 100 µM | O=C(CCc1ccccc1)N1CCC(O)(Cn2cnc3cc(Cl)ccc3c2=O)C1 (centres undefined) |
|  |  |  | 12 µM | O=C(CCc1ccccc1)N1CCC(O)(Cn2cnc3cc(Cl)ccc3c2=O)CC1 |
|  | 390 nM | 1500 nM |  | O=C(Nc1cccc(S(=O)(=O)CC2CC2)c1)c1cc([N+](=O)[O-])c(Sc2c(Cl)cncc2Cl)s1 |
|  |  |  | > 100 µM | O=C(Cc1ccccc1)N1CCC(O)(Cn2cnc3cc(Cl)ccc3c2=O)CC1 |
|  | 4300 nM | 6400 nM |  | O=C(c1cc([N+](=O)[O-])c(Sc2c(Cl)cncc2Cl)s1)N1CCS(=O)(=O)CC1 |
|  |  |  | 0.13 µM | C[C@H](CC(=O)N1CCC(O)(Cn2cnc3cc(NC(=O)CCN(C)C)ccc3c2=O)CC1)c1ccccc1 |
|  |  |  | 0.56 µM | CC(CC(=O)N1CCC(O)(Cn2cnc3cc(NC(=O)CCN4CCN(C)CC4)ccc3c2=O)CC1)c1ccccc1 (centres undefined) |
|  |  |  | 40 µM | C[C@@H](CC(=O)N1CCC(O)(Cn2cnc3cc(Cl)ccc3c2=O)CC1)c1ccccc1 |
